Legend:
CDK9 = molecular target: T1, CDK9 (Homo sapiens, UniProt P50750); experiment: Lance Ultra KinaSelect Assay, CDK9; format: biochemical; conditions: ULight MBP substrate; cyclin partner not stated in Table 5; read-out: CDK9 LANCE assay (activity range), IC50
T1 construct: purchased Invitrogen
Method: This protocol describes how the Lance Ultra KinaSelect Assay was performed to determine half maximal inhibitory concentration (IC50) of compounds of general formula (I) and CDK/Cyclin complexes. The principle behind this enzymatic assay is based upon the phosphorylation of the ULight-Peptide Substrat. It is detected by using a specific EU-labeled anti-phospho peptide antibody. The binding of the Eu-labeled anti-phospho peptide antibody to the phosphorylated ULight labeled peptide gives rise to a FRET-signal. Binding of an inhibitor to the kinase prevents phosphorylation of the ULight-MBP Substrat, resulting in a loss of FRET.
The compounds of general formula (I) summarized in Table 5 were diluted from a 10 mM DMSO stock solution 1:10 in a total volume of 15 μL DMSO. This compound predilution was then serial diluted 1:3 over 8 steps in DMSO and briefly spun down. Each compound solution was now diluted 1:20 in Enzymatic Buffer (HEPES: 50 mM, pH: 7.5; MgCl2: 10 mM; EGTA: 1 mM; DTT: 2 mM; Tween-20: 0.01%), mixed thoroughly and spun down. For every sample, 2 μL of the diluted compound were mixed with 6 μL CDK/Cyclin/Substrat solution and 2 μL ATP solution in a well of a small volume 384 well plate (Corning Incorporated, Corning, N.Y., USA; order no. 3673). The CDK/Cyclin was diluted to the appropriate concentration (see Table 3) and the ATP concentration was adjusted to its […] for the CDK/Cyclin, which was 3 μM for CDK2/Cyclin A, 20 μM for CDK1/Cyclin B1, 25 μM for CDK7/Cyclin H and CDK9/Cyclin T1, 55 μM for CDK6/Cyclin D3, 90 μM for CDK4/Cyclin D1 and 125 μM for CDK9/Cyclin K. For negative controls, in each well 2 μL of DMSO solution (1% final DMSO assay concentration) was mixed with 6 μL substrate solution (50 nM ULight MBP final assay concentration) and 2 μL ATP solution (appropriate final concentration see Table 3). For positive controls, in each well 2 μL of DMSO solution (1% final DMSO assay concentration) was mixed with 6 μL CDK/Cyclin/Substrat (appropriate final concentration see Table 3) and 2 μL Tracer ATP solution (appropriate final concentration see Table 3). Positive and negative controls were calculated from at least 8 different sample wells. The 384 well plates were mixed in a Teleshaker plate mixer (Beckman Coulter, Brea, Calif., USA) at 2000 rpm for 40 sec, and incubated for 1 h at room temperature. Before reading, 10 μL the detection buffer (Lance Detection Buffer 1×; EDTA: […]; Eu-Anti-P-MBP: see Table 3) was added. The FRET signal was measured at 340 nm excitation, 665 nm and 615 nm emission (for the kinase tracer and LanthaScreen Eu-AB, respectively) with an Envision spectrophotometer (Perkin Elmer, Waltham, Mass., USA) with 50 μs delay and 300 μs integration time. IC50 values were determined from the sigmoidal dose response curves with the software Quattro Workflow (Quattro GmbH, Munich, Germany).

[1] = tested on: NF-kappaB reporter gene activation in HEK293 cells; experiment: NF-kappaB reporter assay; format: cell-based; conditions: Homo sapiens, pNFkBluc reporter, 20 ng/ml TNF alpha, 5 h, read-out: NF-kappaB activation (activity range), IC50
Method: Cells were maintained in RPMI cell culture medium+glutamine (PAN Biotech GmbH, Aidenbach, Germany) supplemented with 10% fetal calf serum (PAA Laboratories GmbH, Pasching, Austria) and grown at 37° C., 5% CO2. HEK293 cells grown to 50% confluence were transfected with the Amaxa® Cell Line Nucleofector® Kit V (Lonza, Basel, Switzerland, catalog # VCA-1003). Transfections were performed according to manufacturer's optimized protocol for transfection of HEK293 cells. In brief, 2×10^5 cells were transfected with 5 μg highly purified plasmid DNA. Cells were transfected with a NF-kappa B reporter plasmid (pNFkBluc), pTALluc for control, or pMAXGFP for transfection control. After transfection, cells were taken up in 500 μL RPMI1640 cell culture medium, incubated for 1 h at 37° C., and 4.5 ml DMEM without phenol red were added per transfection. Transfected cells were seeded in 96 well plates (Greiner Bio-One, Frickenhausen, Germany, catalog #655098) with 100 μL cell suspension per well and incubated for 48 h. To each well, 100 μL DMEM with 2× concentrated compound diluted from 10 mM DMSO stocks, or 100 μL DMEM with 0.4% DMSO for control wells, was added. The compounds of general formula (I) summarized in Table 6 were used in this assay. Cells were stimulated with 20 ng/ml TNF alpha, and plates were incubated for 5 h at 37° C./5% CO2. Cell culture supernatants were removed to leave 100 μl medium per well, followed by addition of 100 μl Bright Glo luciferase assay reagent (Promega, Madison, Wis., USA, catalog # E2620), and shaking for 5 minutes in the dark. Luminescence was measured with a Victor Photospectrometer (Perkin Elmer, Waltham, Mass., USA). IC50 values were calculated with the software Excel Fit (IDBS, Guildford, UK) from 2-fold dilution series comprising at least 10 concentrations in duplicates.

Hela cells = experiment: Cell viability assay, Hela cells; format: cell-based; conditions: Homo sapiens, 72 h, Cell Titer Glo, read-out: Cell Viability - Hela cells (activity range), IC50
Method: Hela- or MDAMB468-Cells were maintained in RPMI 1640 or McCoy's 5A cell culture medium+glutamine (PAN Biotech GmbH, Aidenbach, Germany; order no. P04-22100; P04-05500) supplemented with 10% fetal calf serum “Gold” (PAA Laboratories GmbH, Pasching, Austria; order no. A15-151) and grown at 37° C., 5% CO2. For the cell viability assay, cells were seeded with a density of 400 (Hela cells, DSMZ Braunschweig order no. ACC57) or 800 (MDAMB468 cells, ATCC order no. HTB-132) per well in 25 μL in 384-well plates (Greiner Bio-One, Frickenhausen, Germany; order no. 781080). After overnight incubation at 37° C./5% CO2, 25 nL or 75 nL compound were added to each sample well by using BIOMEK FXP Laboratory Automation Workstation (Beckman Coulter, USA). Wells with cells and 0.1% or 0.3% DMSO in culture medium were used as positive controls, wells with cells and 10 μM staurosporine in culture medium were used as negative controls. The cells were incubated with the compounds for 72 h at 37° C./5% CO2. For measurement of cell viability 25 μL Cell Titer Glo reagent (Promega, Madison, USA; order no. G7573), 1:2 diluted with cell culture medium, was added to each well. The 384 well-plates were placed for 2 min on a orbital microplate shaker and incubated for further 10 min at room temperature to stabilize the luminescence signal. Luminescence was measured by Envision Plate Reader (Perkin Elmer, USA). IC50 values were calculated with the software Excel Fit (IDBS, Guildford, UK) from 3-fold dilution series comprising at least 8 concentrations in duplicates.

T1 sequence (P50750 whole entry): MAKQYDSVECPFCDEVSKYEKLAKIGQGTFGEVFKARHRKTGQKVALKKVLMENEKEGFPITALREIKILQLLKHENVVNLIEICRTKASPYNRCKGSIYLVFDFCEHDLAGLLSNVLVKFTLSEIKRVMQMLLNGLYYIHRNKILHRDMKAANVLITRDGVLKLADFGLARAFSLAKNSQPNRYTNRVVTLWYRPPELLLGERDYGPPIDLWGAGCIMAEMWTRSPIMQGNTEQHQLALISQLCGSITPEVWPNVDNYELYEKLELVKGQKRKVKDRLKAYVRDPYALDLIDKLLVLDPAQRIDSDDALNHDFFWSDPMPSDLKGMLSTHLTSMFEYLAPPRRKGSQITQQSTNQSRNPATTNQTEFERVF

SMILES | IC50 (CDK9) [nM] | IC50 (Hela cells) [µM] | IC50 [1] [nM]
COc1ccccc1-c1ccnc(Nc2cccc([N+](=O)[O-])c2)c1 [Compound C1, 4-(2-Methoxyphenyl)-N-(3-nitrophenyl)pyridin-2-amine] | 1000 to 10000 |  | 1000 to 10000
COc1ccccc1-c1ccnc(Nc2ccccc2)c1 [Compound B1, 4-(2-Methoxyphenyl)-N-phenylpyridin-2-amine] | 1000 to 10000 |  | > 10000
CCCNS(=O)(=O)Cc1cccc(Nc2cc(-c3ccc(F)cc3OC)ccn2)c1 [Compound K1, 1-[3-((4-(4-Fluoro-2-methoxyphenyl)pyridin-2-yl)amino)phenyl]-N-propylmethanesulfonamide] | 100 to 1000 | > 10 | 
COc1ccccc1-c1ccnc(Nc2ccc(S(N)(=O)=O)cc2)c1 [Compound E1, 4-[(4-(2-Methoxyphenyl)pyridin-2-yl)amino]benzenesulfonamide] | 100 to 1000 | > 10 | 1000 to 10000
COc1ccccc1-c1ccnc(Nc2cccc(S(C)(=O)=O)c2)c1 [Compound F1, 4-(2-Methoxyphenyl)-N-(3-(methylsulfonyl)phenyl)pyridin-2-amine] | < 100 | 1 to 10 | 1000 to 10000
COc1cc(F)ccc1-c1ccnc(Nc2cccc(CS(=O)(=O)N(C)C)c2)c1 [Compound G3, 1-[3-((4-(4-Fluoro-2-methoxyphenyl)pyridin-2-yl)amino)phenyl]-N,N-dimethylmethanesulfonamide] | < 100 | > 10 | 

Second part, led by results:

IC50 (CDK9) [nM] | IC50 (Hela cells) [µM] | SMILES | IC50 [1] [nM]
< 100 | 1 to 10 | COc1cc(F)ccc1-c1ccnc(Nc2cccc(CS(N)(=O)=O)c2)c1 [Compound G1, [3-((4-(4-Fluoro-2-methoxyphenyl)pyridin-2-yl)amino)phenyl]-methanesulfonamide] | 100 to 1000
< 100 | > 10 | COc1cc(F)ccc1-c1ccnc(Nc2cccc(NC(C)=O)c2)c1 [Compound J2, N-[3-((4-(4-Fluoro-2-methoxyphenyl)pyridin-2-yl)amino)phenyl]-acetamide] | 
< 100 | 1 to 10 | COc1cc(F)ccc1-c1ccnc(Nc2cccc(NS(C)(=O)=O)c2)c1 [Compound J1, N-[3-((4-(4-Fluoro-2-methoxyphenyl)pyridin-2-yl)amino)phenyl]-methanesulfonamide] | 
< 100 | 0.1 to 1 | COc1ccccc1-c1ccnc(Nc2cccc(S(N)(=O)=O)c2)c1 [Compound D1, 3-[(4-(2-Methoxyphenyl)pyridin-2-yl)amino]benzenesulfonamide] | 100 to 1000

Reference: US9242937B2, “Pharmaceutically active disubstituted pyridine derivatives” (Bayer Intellectual Property GmbH, priority 2011, dated 2016)
